Experimental data as given in patent US5616575A (priority 1995, dated 1997).
Entries after “also recorded” stand apart in the source; their conditions may differ.

Columns and labels:
[1] = test system: dopamine levels in the nucleus accumbens and striatum; conditions: nucleus accumbens and striatum (ibogaine: striatum); cited from earlier work
[2] = mice; cited from earlier work
[3] = In vivo evaluation, behavior of rats after injection; conditions: for tremorigenic effect relative to ibogaine: comparison in words with ibogaine at 40 mg/kg; for tremors: 7a 100 μmol/kg; for tremors / locomotor activity and ataxia / behavioral symptoms: 7b comparable dose; for locomotor activity and ataxia / behavioral symptoms: injection, 7a and 7c 100 μmol/kg, 7d 150 μmol/kg
Procedure: Onset of symptoms was evident within 2 minutes, and the effects were most severe by 5 min. Signs of recovery became evident by 40 min post-injection and the animals appeared fully recovered after 60 min. Mild tremors were observed between 3 and 8 min post-injection.

[4] = fighting mice; cited from earlier work
[5] = rodents; cited from earlier work
[6] = humans; cited from earlier work
[7] = dogs and rabbits; cited from earlier work
[8] = cats; cited from earlier work
[9] = humans; cited from earlier work; remark: listed apart in the source
[10] = other animals; cited from earlier work
kappa-1 receptor [11] = assay: Preliminary screening, binding at the kappa-1 receptor; conditions: in words
Procedure: To assess the potential addiction-interrupting effects of the newly synthesized iboganoids, compounds 7a,b,c were tested for binding at the 5-HT transporter and the […] and kappa-2 opiate receptors, molecular targets known to modulate mesolimbic dopaminergic function.

5-HT transporter = target: T1, 5-HT transporter (Homo sapiens, UniProt P31645); assay: Full competition experiments at the 5-HT transporter in human occipital cortex ([125I]RTI55); type: binding; conditions: for relative potency at the 5-HT transporter: comparison with ibogaine or noribogaine, in words; for IC50 / nH: human occipital cortex, mean ± S.D.; for IC50: 0.01 nM [125I]RTI55, 1 μM benztropine, 25° C., two determinations in triplicate; for nH: 0.01 nM [125I]RTI55
T1 construct: from tissue; host or cells: human occipital cortex membranes
Procedure: ^a Membranes isolated from human occipital cortex were incubated for
hr at 25° C., in the presence of 1 μM benztropine, with 0.01 nM
[^125 I]RTI55 and varying concentrations of the respective compounds.
Data analysis was performed with EBDA (DRUG). The data presented are the
mean ± S.D. of two independent determinations conducted in triplicate,
nonspecific binding was evaluated using 50 μm-cocaine. (See, J.K.
Staley et al., J. Neurochem., 62, 549 (1994)).

kappa-1 receptor [12] = target: T2, kappa-1 receptor (Homo sapiens, UniProt P41145); assay: Competition binding at the kappa-1 receptor of human insular cortex ([3H]U693593); conditions: for IC50: IC50, human insular cortex; for IC50 / nH: mean ± S.D.; for nH: human insular cortex; for relative potency at the kappa-1 receptor: comparison with ibogaine, in words
T2 construct: from tissue; host or cells: human insular cortex membranes
Procedure: Data analysis was performed with EBDA (DRUG); NS = nonspecific
The data presented are the mean ± S.D. of two independent

NMDA receptor = NMDA receptor binding in human caudate (FIG. 3A); conditions: comparison in words
Procedure: The affinity of compounds 7a-c for the NMDA receptor was measured in human brain tissue employing the methodology of P. Popik et al., Psychopharmacol., 114, 672 (1994).

[13] = rats, 100 μmol/kg, post-injection

R-ibogamine [R-ibogaine]
dopamine levels [1]: reduced dopamine levels in the nucleus accumbens and striatum

c1ccc(C2CNCCc3c2[nH]c2ccccc32)cc1 (stereo not shown) [5-phenyl-1,2,3,4,5,6-hexahydroazepino[4,5-b]indole]
antidepressant activity [2]: displayed antidepressant activity

CC[C@H]1C[C@@H]2CN3CCc4c([nH]c5ccccc45)[C@](C(=O)OC)(C2)[C@H]13 [R-coronaridine]
dopamine levels [1]: reduced dopamine levels in the nucleus accumbens and striatum

COC(=O)[C@H]1[C@@H](OC(=O)c2ccccc2)C[C@@H]2CC[C@H]1N2C [cocaine, reference compound]
reversal of the reduction in locomotor activity induced by 7b ([3]; rats, cocaine 10 mg/kg ip, injected 10 min after 7b): reversed the reduction in locomotor activity induced by 7b

CN1CCc2c([nH]c3ccccc23)C(c2ccccc2)C1 (stereo not shown) [3-methyl-5-phenyl-1,2,3,4,5,6-hexahydroazepino[4,5-b]indole]
antidepressant activity [2]: displayed antidepressant activity

Cn1c2c(c3ccccc31)CCNCC2 [6-methyl-1,2,3,4,5,6-hexahydroazepino[4,5-b]indole]
aggressive behavior [4]: antagonize aggressive behavior in fighting mice
conditioned avoidance [5]: block conditioned avoidance
hypothermia and anorexigenic behavior [5]: induce hypothermia and anorexigenic behavior in rodents
neuroleptic activity [6]: did not exhibit neuroleptic activity in humans

CC[C@H]1C[C@H]2C[C@H]3c4[nH]c5ccc(OC)cc5c4CCN(C2)[C@@H]13 [Ibogaine, ibogaine]
excitatory effects and local anesthetic activity [7]: unusual excitatory effects and local anesthetic activity
psychostimulant effects [8]: psychostimulant which caused phobia, ataxia and tremors in cats
craving / drug-free status [9]: some addicts reported alleviation or cessation of craving, and a few remained drug-free for several years thereafter; also recorded: effective in reducing craving in some humans while others were unaffected
number of doses required for comparable effects [10]: up to three doses
dopamine levels [1]: reduce dopamine levels in the striatum

CCN1CCc2c(sc3ccccc23)C(c2cccc([N+](=O)[O-])c2)C1 (stereo not shown) [Compound 7b, 3-Ethyl-5-(3-nitrophenyl)-1,2,3,4,5-pentahydroazepino[4,5-b]benzothiophene]
activity/affinity at the kappa-1 receptor (kappa-1 receptor [11]): poor affinity
relative potency at the 5-HT transporter (5-HT transporter): two- to threefold more potent than ibogaine
IC50 (5-HT transporter): 0.26 ± 0.06 µM
nH (5-HT transporter): 1.0 ± 0.2
tremorigenic effect relative to ibogaine [3]: much less tremorigenic than ibogaine
tremors ([3]; rats): no tremors were observed

CCC1CC2CC3c4[nH]c5ccc(O)cc5c4CCN(C2)C13 (stereo not shown) [Noribogaine, 12-hydroxyibogamine, reference compound]
nH (5-HT transporter): 0.78 ± 0.06
IC50 (kappa-1 receptor [12]; 0.3 nM [3H]U693593, 1 hr, 25° C., NS definition not stated in line): 4.24 ± 0.28 µM
nH (kappa-1 receptor [12]; NS definition not stated in line): 1.1 ± 0.1

CCN1CCc2c(sc3ccccc23)C(c2cccc(Br)c2)C1 (stereo not shown) [Compound 7c, 3-Ethyl-5-(3-bromophenyl)-1,2,3,4,5-pentahydroazepino[4,5-b]benzothiophene]
relative potency at the NMDA site (NMDA receptor): equipotent with ibogaine; also recorded: about fivefold more potent than 7a,b and noribogaine
activity/affinity at the kappa-1 receptor (kappa-1 receptor [11]): some activity
relative potency at the 5-HT transporter (5-HT transporter): essentially equipotent with the naturally occurring compound
IC50 (5-HT transporter): 0.82 ± 0.16 µM
nH (5-HT transporter): 1.2 ± 0.2
IC50 (kappa-1 receptor [12]; NS = 10 μM Naloxone): 117 ± 14.5 µM
IC50 (kappa-1 receptor [12]; NS, Computer-derived): 49 ± 0.96 µM
relative potency at the kappa-1 receptor (kappa-1 receptor [12]): significantly less potent
nH (kappa-1 receptor [12]; NS = 10 μM Naloxone): 0.6 ± 0.1
nH (kappa-1 receptor [12]; NS, Computer-derived): 0.9 ± 0.1
locomotor activity and ataxia / behavioral symptoms ([3]; rats): No effects were observed

CCN1CCc2c(sc3ccccc23)C(c2ccccc2)C1 (stereo not shown) [Compound 7a, 3-Ethyl-5-phenyl-1,2,3,4,5-pentahydroazepino[4,5-b]benzothiophene]
activity/affinity at the kappa-1 receptor (kappa-1 receptor [11]): some activity
relative potency at the 5-HT transporter (5-HT transporter): two- to threefold more potent than ibogaine
IC50 (5-HT transporter): 0.21 ± 0.01 µM
nH (5-HT transporter): 1.0 ± 0.1
IC50 (kappa-1 receptor [12]; NS = 10 μM Naloxone): 17.2 ± 3.18 µM
IC50 (kappa-1 receptor [12]; NS, Computer-derived): 10.1 ± 2.01 µM
relative potency at the kappa-1 receptor (kappa-1 receptor [12]): essentially equipotent with ibogaine
nH (kappa-1 receptor [12]; NS = 10 μM Naloxone): 0.5 ± 0.0
nH (kappa-1 receptor [12]; NS, Computer-derived): 1.3 ± 0.1
tremorigenic effect relative to ibogaine [3]: much less tremorigenic than ibogaine
breathing ([3]; rats, 100 μmol/kg): Breathing appeared labored
onset of symptoms ([3]; rats, 100 μmol/kg): ≤ 2 min
tail posture ([3]; rats, 100 μmol/kg): the tail remained outstretched and limp
time at which effects were most severe ([3]; rats, 100 μmol/kg): ≤ 5 min
time at which signs of recovery became evident [3, 13]: ≤ 40 min
time to full recovery [3, 13]: 60 min
tremors ([3]; rats): Mild tremors
locomotor activity and ataxia / behavioral symptoms ([3]; rats): severe reduction in locomotor activity and ataxia
